Several values for one entry are separate records, joined by “and”; a condition that tells them apart may be missing. Identical values can stand only once. Entries after “also recorded” stand apart in the source; their conditions may differ. Like-named read-outs stand apart in the source and are kept apart here.
Assays:
[1] = Pharmacokinetics after i.v. injection in rabbits; type: in vivo, rabbit; conditions: i.v. 90 mg/kg (as acid)
Method: (§1) The following pharmacological experimentation was carried out in order to estimate the comparative absorption and bioavailability through various administration routes in rabbits of Alclofenac acid and its lysine salt.

rat leg = test: Tolerability by volume increase of rat leg versus commercial injectable preparations; type: in vivo; conditions: FIG. 1
Excerpt: This type of preparation was estimated also in comparison with commercially available injectable preparations according to the method of volume increase of rat leg and results are shown in FIG. 1 of the drawings.

Solubility = type: physicochemical; conditions: in words, solvent as stated
[2] = Pharmacokinetics from plasma levels after oral, rectal and intramuscular administration in rabbits; type: in vivo, rabbit
Method: as §1

[3] = Analgesic, antipyretic and antiinflammatory activity; type: in vivo; conditions: versus the starting acid
[4] = Extent of availability after different routes, intravenous administration as reference; type: in vivo, rabbit
Method: as §1

[5] = General tolerability by route of administration; type: in vivo
[6] = Stability and hygroscopicity; type: physicochemical
[7] = test system: rabbit dorsal long muscle; test: Local tolerability after intramuscular injection, muscle removed at 24 hours, irritation by arbitrary scores; type: in vivo; set-up: scale not given here
Method: Such a tolerability was estimated after injection of equivalent solutions of the various preparations, effected in the rabbit dorsal long muscle, removing muscle 24 hours after injection and estimating the degree of induced irritation through arbitrary scores.

pH of aqueous solution = type: physicochemical
[8] = individual, in order Rabbit I, II, III, IV, 90 mg/kg
[9] = INTRAMUSCOLAR 80 mg/kg, ± E.S.M.
[10] = P.OS 90 mg/kg, ± E.S.M., listed as Lysine Salt
[11] = P.OS 90 mg/kg, ± E.S.M., listed as Lysine Salt, 90 mg/kg
[12] = RECTAL 100 mg/kg, ± E.S.M., listed as Lysine Salt
[13] = RECTAL 100 mg/kg, ± E.S.M., listed as Lysine Salt, 100 mg/kg
[14] = rabbit, plasma, im, 80 mg/kg, INTRAMUSCOLAR 80 mg/kg, ± E.S.M.
[15] = 100 mg/ml (as acid), 0.5 ml injected
[16] = 131 mg/ml (as acid), 0.25 ml injected

C=CCOc1ccc(CC(=O)O)cc1Cl [Alclofenac-Lysine, lysine 4-allyloxy-3-chlorophenylacetate]
A ([1]; MEAN ± S.E.M. of 4 rabbits): 165.7 ± 16.6 µg/mL | B ([1]; MEAN ± S.E.M. of 4 rabbits): 293.5 ± 14.2 µg/mL | K12 ([1]; MEAN ± S.E.M. of 4 rabbits): 0.027 ± 0.003 min⁻¹ | K21 ([1]; MEAN ± S.E.M. of 4 rabbits): 0.053 ± 0.009 min⁻¹ | α ([1]; MEAN ± S.E.M. of 4 rabbits): 0.082 ± 0.011 min⁻¹ | A [1, 8]: 170.51 µg/mL and 151.04 µg/mL and 209.59 µg/mL and 131.86 µg/mL | B [1, 8]: 269.19 µg/mL and 324.95 µg/mL and 269.89 µg/mL and 310.16 µg/mL | CL [1, 8]: 0.56 mL/min/kg and 0.63 mL/min/kg and 0.36 mL/min/kg and 0.74 mL/min/kg | K12 [1, 8]: 0.030 min⁻¹ and 0.034 min⁻¹ and 0.028 min⁻¹ and 0.018 min⁻¹ | K21 [1, 8]: 0.051 min⁻¹ and 0.078 min⁻¹ and 0.038 min⁻¹ and 0.047 min⁻¹ | Kel [1, 8]: 0.0033 min⁻¹ and 0.0019 min⁻¹ and 0.0036 min⁻¹ | Vdβ [1, 8]: 0.274 L/kg and 0.329 L/kg and 0.285 L/kg | t1/2α [1, 8]: 6 min and 10.5 min (2×) | t1/2β [1, 8]: 6.8 h and 5.02 h and 10.5 h and 4.43 h | α [1, 8]: 0.083 min⁻¹ and 0.113 min⁻¹ and 0.067 min⁻¹ and 0.066 min⁻¹ | β [1, 8]: 0.0017 min⁻¹ and 0.0023 min⁻¹ and 0.0011 min⁻¹ and 0.0026 min⁻¹ | k el ([1]; rabbit, in vivo, iv, 90 mg/kg, MEAN ± S.E.M. of 4 rabbits, read-out: β (converted)): 3.17e-05 s⁻¹ | clearance ([1]; rabbit, plasma, iv, 90 mg/kg, MEAN ± S.E.M. of 4 rabbits): 0.57 ± 0.08 mL/min/kg | k el ([1]; rabbit, plasma, iv, 90 mg/kg, MEAN ± S.E.M. of 4 rabbits, read-out: Kel (converted)): 4.83e-05 s⁻¹ | Vd ([1]; rabbit, plasma, iv, 90 mg/kg, MEAN ± S.E.M. of 4 rabbits, read-out: Vdβ): 0.304 ± 0.015 L/kg | half-life ([1]; rabbit, plasma, iv, 90 mg/kg, MEAN ± S.E.M. of 4 rabbits, read-out: t1/2α): 0.15 ± 0.0167 h | half-life ([1]; rabbit, plasma, iv, 90 mg/kg, MEAN ± S.E.M. of 4 rabbits, read-out: t1/2β): 6.68 ± 1.35 h | Vd ([1]; rabbit, plasma, iv, 90 mg/kg, MEAN ± S.E.M. of 4 rabbits, read-out: √1): 0.196 ± 0.005 L/kg | Vd ([1]; rabbit, plasma, iv, 90 mg/kg, MEAN ± S.E.M. of 4 rabbits, read-out: √2): 0.392 ± 0.06 L/kg | k el ([1]; rabbit, plasma, iv, 90 mg/kg, individual, in order Rabbit I, II, III, IV, read-out: Kel (converted)): 4.5e-05 s⁻¹ | Vd ([1]; rabbit, plasma, iv, 90 mg/kg, individual, in order Rabbit I, II, III, IV, read-out: Vdβ): 0.33 L/kg | half-life ([1]; rabbit, plasma, iv, 90 mg/kg, individual, in order Rabbit I, II, III, IV, read-out: t1/2α): 0.142 h | Vd ([1]; rabbit, plasma, iv, 90 mg/kg, individual, in order Rabbit I, II, III, IV, read-out: √1): 0.205 L/kg | tolerability versus Mervan (rat leg): better more tolerated than a commercially available preparation | Solubility (Solubility): soluble in biological fluids; also recorded: extremely soluble in water and alcohols; also recorded: insoluble in acetone | Solubility (Solubility; listed as compound (1)): very soluble in water and alcohols; also recorded: insoluble in acetone | Ka [2, 9]: 0.0131 ± 0.0031 min⁻¹ | t1/2α [2, 9]: 1 ± 0.183 h | Ka [2, 10]: 0.0174 ± 0.0047 min⁻¹ | t1/2α [2, 10]: 0.616667 ± 0.13333 h | Cmax [2, 11]: 454.5 ± 152.2 µg/mL | Kel [2, 11]: 0.0023 ± 0.0005 min⁻¹ | Tmax [2, 11]: 2.18 ± 0.467 h | Vdβ [2, 11]: 0.301 ± 0.050 L/kg | t1/2β [2, 11]: 6.28 ± 1.53 h | Ka [2, 12]: 0.132 ± 0.032 min⁻¹ | t1/2α [2, 12]: 0.13 ± 0.05 h | CL [2, 13]: 0.55 ± 0.03 mL/kg | Cmax [2, 13]: 473.7 ± 24.1 µg/mL | Kel [2, 13]: 0.0026 ± 0.0004 min⁻¹ | Tmax [2, 13]: 0.65 ± 0.183 h | Vdβ [2, 13]: 0.248 ± 0.072 L/kg | t1/2β [2, 13]: 4.47 ± 1.18 h | intramuscular absorption velocity, in words ([2]; intramuscular, versus per os): may be compared with that per os | intramuscular blood levels, in words ([2]; intramuscular, versus per os): instantaneous and sustained blood levels are lower | absorption velocity ([2]; oral and rectal route): higher absorption velocity even through the oral and rectal route | absorption, in words ([2]; oral and rectal route, rabbits, listed as Lysine Salt): absorbed faster and to a higher extent in comparison with the acidic substance | CL/F [2, 14]: 0.67 ± 0.06 mL/min/kg | k el [2, 14]: 1.17e-05 s⁻¹ | Cmax ([2]; rabbit, plasma, im, 80 mg/kg, INTRAMUSCOLAR 80 mg/kg, ± E.S.M., read-out: Cmax): 144 ± 30 µg/mL | Vd/F ([2]; rabbit, plasma, im, 80 mg/kg, INTRAMUSCOLAR 80 mg/kg, ± E.S.M., read-out: Vdβ): 0.607 ± 0.09 L/kg | half-life ([2]; rabbit, plasma, im, 80 mg/kg, INTRAMUSCOLAR 80 mg/kg, ± E.S.M., read-out: t1/2β): 23.4 ± 6.3 h | Tmax ([2]; rabbit, plasma, im, 80 mg/kg, INTRAMUSCOLAR 80 mg/kg, ± E.S.M., read-out: tmax (converted)): 4.62 h | analgesic, antipyretic and antiinflammatory properties [3]: equal or even superior to those of the starting acid | % Availability (AUC o → 2h) ([4]; I.V. 90 mg/kg, 0-2 h, reference): 100% | % Availability (AUC o → 4h) ([4]; I.V. 90 mg/kg, 0-4 h, reference): 100% | % Availability (practical AUC) ([4]; I.V. 90 mg/kg, reference): 100% | % Availability (theoretical AUC) ([4]; I.V. 90 mg/kg, reference): 100% | bioavailability at 2 h ([4]; rabbit, plasma, 100 mg/kg, Rectal 100 mg/kg, 0-2 h, i.v. as reference, read-out: % Availability (AUC o → 2h)): 95.7% | bioavailability ([4]; rabbit, plasma, 100 mg/kg, Rectal 100 mg/kg, i.v. as reference, read-out: % Availability (practical AUC)): 100% | bioavailability ([4]; rabbit, plasma, 100 mg/kg, Rectal 100 mg/kg, i.v. as reference, read-out: % Availability (theoretical AUC)): 89.2% | bioavailability ([4]; rabbit, plasma, im, 80 mg/kg, I.M. 80 mg/kg, i.v. as reference, read-out: % Availability (practical AUC)): 95.4% | bioavailability ([4]; rabbit, plasma, im, 80 mg/kg, I.M. 80 mg/kg, i.v. as reference, read-out: % Availability (theoretical AUC)): 155% | bioavailability at 4 h ([4]; rabbit, plasma, po, 90 mg/kg, P.O. 90 mg/kg, 0-4 h, i.v. as reference, read-out: % Availability (AUC o → 4h)): 58.1% | bioavailability ([4]; rabbit, plasma, po, 90 mg/kg, P.O. 90 mg/kg, i.v. as reference, read-out: % Availability (practical AUC)): 88.5% | bioavailability ([4]; rabbit, plasma, po, 90 mg/kg, P.O. 90 mg/kg, i.v. as reference, read-out: % Availability (theoretical AUC)): 82.7% | tolerability on injection ([5]; intravenous or intramuscular): well tolerated after either intravenous or intramuscular administration | tolerability per os ([5]; oral): better tolerated per os; also recorded: better tolerance | Stability of the solution ([6]; in words, listed as compound (1)): perfectly stable | Hygroscopicity ([6]; isolated solid): non-hygroscopic | SCORES at 24 hours, Average [7, 15]: 2.3 | SCORES at 24 hours, Average [7, 16]: 2.6 | SCORES at 24 hours, individual [7, 15]: 2 (2×) and 3 | SCORES at 24 hours, individual [7, 16]: 2 and 3 and 4 (2×) and 0 | pH value of the 10% aqueous solution (pH of aqueous solution; 10% aqueous solution): 7.7 | pH of 25% parts/volume aqueous solution (pH of aqueous solution; 25% parts/volume, specification): 7.4-7.8

Source: patent US4189499A, “Lysine 4-allyloxy-3-chlorophenylacetate and method of its preparation” (priority 1979, dated 1980)
